Assay results reported in PMC6385482 (2018).

Key:
[1] = test system: hpDNA (hairpin DNA, 28 bp as printed) (DNA, hairpin) CGCGAATTCGCGTTTTCGCGAATTCGCG; assay: fluorescence titration, single-site fit; conditions: PBS (ion concentrations not given), PBS pH 7.4, room temperature, 1 h
[2] = test system: hpDNA (hairpin DNA, 28 bp as printed) (DNA, hairpin) CGCGAATTCGCGTTTTCGCGAATTCGCG; assay: fluorescence titration, two-site fit with offset; conditions: PBS (ion concentrations not given); PBS pH 7.4, room temperature, 1 h; 10 nM compound; site 1 of 2

SMILES | Kd1 ([1]; 10 nM compound) | also measured
CCOc1ccc(-c2nc3ccc(-c4nc5ccc(N6CCN(C)CC6)cc5[nH]4)cc3[nH]2)cc1 |  | Kd1 ([1]; 4 nM compound): 2.6 ± 0.4 nM
CN1CCN(c2ccc3nc(-c4ccc5nc(-c6ccc(OCCCCNC(=O)c7ccc8c(c7)C(=O)OC87c8ccc(N(C)C)c[c]8[Ge]([CH3])([CH3])[c]8cc(N(C)C)ccc87)cc6)[nH]c5c4)[nH]c3c2)CC1 | 4374 ± 192 nM | 
CN1CCN(c2ccc3nc(-c4ccc5nc(-c6ccc(OCCCCNC(=O)c7ccc8c(c7)C(=O)OC87c8ccc(N(C)C)cc8C(C)(C)c8cc(N(C)C)ccc87)cc6)[nH]c5c4)[nH]c3c2)CC1 | 347 ± 22 nM | 
CN1CCN(c2ccc3nc(-c4ccc5nc(-c6ccc(OCCCCNC(=O)c7ccc8c(c7)C(=O)OC87c8ccc(N(C)C)cc8Oc8cc(N(C)C)ccc87)cc6)[nH]c5c4)[nH]c3c2)CC1 | 365 ± 12 nM | 
CN1CCN(c2ccc3nc(-c4ccc5nc(-c6ccc(OCCCCNC(=O)c7ccc8c(c7)C(=O)OC87c8ccc(N(C)C)cc8[Si](C)(C)c8cc(N(C)C)ccc87)cc6)[nH]c5c4)[nH]c3c2)CC1 | 4799 ± 201 nM | 
CN1CCN(c2ccc3nc(-c4ccc5nc(-c6ccc(OCCCCNC(=O)c7ccc8c(c7)C7(OC8=O)c8ccc(N(C)C)c[c]8[Ge]([CH3])([CH3])[c]8cc(N(C)C)ccc87)cc6)[nH]c5c4)[nH]c3c2)CC1 | 572 ± 26 nM | 
CN1CCN(c2ccc3nc(-c4ccc5nc(-c6ccc(OCCCCNC(=O)c7ccc8c(c7)C7(OC8=O)c8ccc(N(C)C)cc8C(C)(C)c8cc(N(C)C)ccc87)cc6)[nH]c5c4)[nH]c3c2)CC1 |  | Kd1 [2]: 65 ± 7 nM
CN1CCN(c2ccc3nc(-c4ccc5nc(-c6ccc(OCCCCNC(=O)c7ccc8c(c7)C7(OC8=O)c8ccc(N(C)C)cc8Oc8cc(N(C)C)ccc87)cc6)[nH]c5c4)[nH]c3c2)CC1 |  | Kd1 [2]: 14 ± 1 nM
CN1CCN(c2ccc3nc(-c4ccc5nc(-c6ccc(OCCCCNC(=O)c7ccc8c(c7)C7(OC8=O)c8ccc(N(C)C)cc8[Si](C)(C)c8cc(N(C)C)ccc87)cc6)[nH]c5c4)[nH]c3c2)CC1 | 669 ± 26 nM | 
CNc1ccc2c(c1)C(C)(C)c1cc(NC)ccc1C21OC(=O)c2cc(C(=O)NCCCCOc3ccc(-c4nc5ccc(-c6nc7ccc(N8CCN(C)CC8)cc7[nH]6)cc5[nH]4)cc3)ccc21 | 155 ± 14 nM | 
CNc1ccc2c(c1)C(C)(C)c1cc(NC)ccc1C21OC(=O)c2ccc(C(=O)NCCCCOc3ccc(-c4nc5ccc(-c6nc7ccc(N8CCN(C)CC8)cc7[nH]6)cc5[nH]4)cc3)cc21 |  | Kd1 [2]: 27 ± 3 nM
